Literature values in EP0551434B1 (BOARD OF REGENTS THE UNIVERSITY OF TEXAS SYSTEM, priority 1990, dated 1992).

Target: estrogen receptor (Homo sapiens, UniProt P03372)
Conditions: Salituro et al.; cited from earlier work

Sequence of estrogen receptor (P03372 whole entry): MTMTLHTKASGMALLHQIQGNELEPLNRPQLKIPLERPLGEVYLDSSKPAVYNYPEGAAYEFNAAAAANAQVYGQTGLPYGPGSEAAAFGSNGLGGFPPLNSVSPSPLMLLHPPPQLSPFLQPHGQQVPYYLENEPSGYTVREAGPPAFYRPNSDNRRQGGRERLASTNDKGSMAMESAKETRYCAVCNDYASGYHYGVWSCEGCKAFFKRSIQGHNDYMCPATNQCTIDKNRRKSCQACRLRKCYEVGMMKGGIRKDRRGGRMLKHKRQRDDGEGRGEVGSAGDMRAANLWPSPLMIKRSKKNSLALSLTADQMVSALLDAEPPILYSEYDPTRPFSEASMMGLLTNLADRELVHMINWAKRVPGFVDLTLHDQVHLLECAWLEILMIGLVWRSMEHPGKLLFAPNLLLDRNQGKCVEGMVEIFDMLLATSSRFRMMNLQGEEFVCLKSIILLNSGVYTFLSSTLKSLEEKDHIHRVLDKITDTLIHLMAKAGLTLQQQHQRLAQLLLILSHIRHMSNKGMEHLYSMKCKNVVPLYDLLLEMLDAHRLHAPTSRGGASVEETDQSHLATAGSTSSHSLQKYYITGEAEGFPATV

## CC/C(=C(\c1ccccc1)c1ccc(OCCN2CC2)cc1)c1ccccc1 (single isomer, unassigned) [tamoxifen azizidine cis isomer, tamoxifen azizidine]
  fold less affinity than the trans isomer: 50 fold
